Results: US20260274922A1, “SYNTHETIC ESTROGEN RECEPTOR (ER)-DERIVED PEPTIDE” (THE TEXAS A&M UNIVERSITY SYSTEM, priority 2023, published 2026)
Where a SMILES comes first, the peptide text is derived from it. The star is where a group is joined. Cbz = O=C(OCc1ccccc1)*

T1: IRS1 (Homo sapiens, UniProt P35568)
T1 sequence (P35568 1-1242): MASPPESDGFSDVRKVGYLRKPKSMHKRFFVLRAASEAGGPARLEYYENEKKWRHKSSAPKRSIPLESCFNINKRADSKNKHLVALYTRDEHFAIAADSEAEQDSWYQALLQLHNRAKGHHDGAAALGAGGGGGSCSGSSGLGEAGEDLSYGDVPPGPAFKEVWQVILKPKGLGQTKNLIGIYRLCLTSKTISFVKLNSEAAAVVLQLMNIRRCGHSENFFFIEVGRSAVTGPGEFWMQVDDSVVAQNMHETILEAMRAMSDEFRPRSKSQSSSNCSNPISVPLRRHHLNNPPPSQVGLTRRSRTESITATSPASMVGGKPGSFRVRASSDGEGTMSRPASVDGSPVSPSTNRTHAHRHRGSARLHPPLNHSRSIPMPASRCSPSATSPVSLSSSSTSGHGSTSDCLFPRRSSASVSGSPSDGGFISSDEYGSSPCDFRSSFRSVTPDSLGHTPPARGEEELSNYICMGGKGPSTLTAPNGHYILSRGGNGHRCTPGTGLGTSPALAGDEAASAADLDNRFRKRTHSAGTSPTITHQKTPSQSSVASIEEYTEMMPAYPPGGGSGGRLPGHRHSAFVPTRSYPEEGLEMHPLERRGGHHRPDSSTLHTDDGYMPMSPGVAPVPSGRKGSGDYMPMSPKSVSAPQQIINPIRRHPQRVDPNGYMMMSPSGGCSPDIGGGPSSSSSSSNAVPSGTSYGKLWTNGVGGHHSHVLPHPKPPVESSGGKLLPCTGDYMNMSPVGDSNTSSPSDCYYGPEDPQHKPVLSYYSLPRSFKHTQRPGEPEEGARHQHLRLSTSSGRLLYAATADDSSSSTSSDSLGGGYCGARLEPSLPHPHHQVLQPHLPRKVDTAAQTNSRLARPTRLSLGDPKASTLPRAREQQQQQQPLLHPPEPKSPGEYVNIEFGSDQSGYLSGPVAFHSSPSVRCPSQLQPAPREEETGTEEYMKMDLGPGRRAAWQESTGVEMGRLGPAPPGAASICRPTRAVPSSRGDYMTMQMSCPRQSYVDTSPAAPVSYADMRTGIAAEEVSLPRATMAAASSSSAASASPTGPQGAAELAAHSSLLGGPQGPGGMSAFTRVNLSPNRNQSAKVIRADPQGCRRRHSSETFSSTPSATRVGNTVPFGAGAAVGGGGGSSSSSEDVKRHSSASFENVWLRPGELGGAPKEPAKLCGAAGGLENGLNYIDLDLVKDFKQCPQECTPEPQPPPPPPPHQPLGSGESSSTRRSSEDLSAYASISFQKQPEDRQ


Tests used:
Format in all cases: cell-based
ERα mRNA = ERα mRNA expression in mouse primary hepatocytes treated with insulin; conditions: 200 nM insulin for 12 hours
Source text: FIGS. 8A and 8B show the hyperinsulinemia decreases ERα mRNA expression in mouse primary hepatocytes. […] Data are presented as mean±SEM. * p<0.05, One-way ANOVA.
RNA extraction and quantitative real-time PCR. Total RNA was extracted from livers or primary hepatocytes using TRIzol (Invitrogen, Thermo Fisher Scientific), purified with chloroform, 80% ethanol, isopropanol, and RNA column, eluted with RNase free water, and reverse transcribed into cDNA using iScript Reverse Transcription Supermix (Bio-Rad, Hercules, CA). Quantitative real-time PCR (qPCR) was conducted using SsoAdvanced Universal SYBR Green Supermix (Bio-Rad, Hercules, CA) on CFX384 real-time PCR detection system (Bio-Rad, Hercules, CA). Q-PCR started with 95° C. incubation for 3 min, followed by 39 cycles of 95° C. for 5 s and 60° C. for 30 s. The threshold cycle (CT) values were obtained and used to calculate the relative transcriptional level of target genes by 2^−ΔΔCT method with Cyclophilin (Cyp) as an internal control. […].

IRS1 [1] = target: T1, IRS1; test: Immunofluorescence staining in HEK293T cells
Procedure: Immunofluorescence staining. Cells were fixed with 4% formaldehyde solution, followed by incubation with blocking buffer (1×PBS/5% normal serum/0.3% Triton X-100) for 1 h. After rinsing three times using PBS, cells were incubated with primary antibodies overnight at 4° C. Cells were washed with PBS and incubated with secondary antibodies (anti-mouse Alexa Flour 594 Conjugated) at room temperature 1-2 h. Cells were covered with DAPI-contained mounting medium. Fluorescent signal was observed using Confocal microscopy (Leica).

HepG2 cells (IRS1, pAKT) = test: Gain-of-function of ERα domains on insulin sensitivity in HepG2 cells; conditions: overexpression
Procedure: (§1) Primary hepatocytes isolation and cell culture. Primary hepatocytes were isolated. Male mice at age of 8-12 weeks were infused with a perfusion buffer A (calcium and magnesium-free HBSS supplemented with 10 mM HEPES, […], 1 mM glucose, and 1% penicillin-streptomycin, pH 7.4) through portal vein for 6-8 min. Then perfusion buffer A was changed to buffer B (calcium and magnesium-free HBSS supplemented with 10 mM HEPES, 1 mM CaCl2), 1 mM glucose, 1% penicillin-streptomycin, and 0.5 mg/mL collagenase II, pH 7.4). […] Liver cells were suspended and passed through a 70 μm cell strainer, followed by centrifuge at 1700 rpm for 2 min. Pellets were resuspended with Percoll at final concentration of 36% and centrifuged at 1800 rpm for 6 min. The hepatocyte pellet was washed and suspended with DMEM supplemented with 10% FBS and 1% penicillin-streptomycin in collagen-coated plates. The HepG2 cell line was purchased from Abcam and cultured with DMEM medium supplemented with 10% FBS and 1% penicillin-streptomycin in collagen-coated plates. The human embryo kidney (HEK) 293 cell line was purchased from Sigma and cultured with DMEM medium supplemented with 10% FBS and 1% penicillin-streptomycin. FBS-free DMEM medium was used to culture cells during the experiments.
(§2) Co-immunoprecipitation and Western blotting analysis. […] Protein bands were detected using a ChemiDoc image system.

IRS1 [2] = test: IRS1 protein levels in ERα deficient mouse primary hepatocytes treated with MG132; conditions: ERαLivKO hepatocytes, 10 μM MG132 for 3 hours
Procedure: Representative blots are shown. […] Co-immunoprecipitation was performed.
as §1, with “FBS-free DMEM medium was used to culture cells during the experiments.” left out
as §2

| colocalization with IRS1 (IRS1 [1]) | Molecule | enhancement of insulin-stimulated AKT phosphorylation (HepG2 cells (IRS1, pAKT)) | increase in IRS1 (HepG2 cells (IRS1, pAKT)) | other results |
| --- | --- | --- | --- | --- |
|  | insulin: insulin used to treat primary hepatocytes (200 nM) |  |  | mRNA expression levels of ERα (ERα mRNA): significantly decreased |
| colocalization with IRS1 | TKASGMALLHEPLNRPQLKIPLERDSSKPAVYNY (Description of sequence: AF1 domain portion sequence) [34-amino acid-peptide, overexpressed in cells] | ~ 26% | ~ 80% |  |
| colocalization with IRS1 | MTMTLHTKASGMALLHQIQGNELEPLNRPQLKIPLERPLGEVYLDSSKPAVYNYPEGAAY (Description of sequence: ER-alpha amino acids 1-60) [ERα 1-60, ERα amino acids 1-60 domain] | ~ 26% | ~ 80% |  |
|  | CC(C)C[C@@H](C=O)NC(=O)[C@H](CC(C)C)NC(=O)[C@H](CC(C)C)NC(=O)OCc1ccccc1 [MG132] (Cbz-Leu-Leu-Leu-aldehyde) |  |  | IRS1 protein levels (IRS1 [2]): significantly increased |
|  | ERα 60-280: ERα 60-280 domain, overexpressed in HepG2 cells (protein, UniProt P03372 60-280, looked up, fragment) YEFNAAAAANAQVYGQTGLPYGPGSEAAAFGSNGLGGFPPLNSVSPSPLMLLHPPPQLSPFLQPHGQQVPYYLENEPSGYTVREAGPPAFYRPNSDNRRQGGRERLASTNDKGSMAMESAKETRYCAVCNDYASGYHYGVWSCEGCKAFFKRSIQGHNDYMCPATNQCTIDKNRRKSCQACRLRKCYEVGMMKGGIRKDRRGGRMLKHKRQRDDGEGRGEV |  |  | IRS1 protein levels (HepG2 cells (IRS1, pAKT)): no significant effect; insulin-induced AKT phosphorylation (HepG2 cells (IRS1, pAKT)): no significant effect |
